# Assays:
# CL660 animals [1] = assay: vGFP scoring in CL660 animals fed bacteria expressing RNAi (daf-16, hsf-1) plus compound; format: in vivo, C. elegans; settings: for effect of DAF-16 knockdown on the beneficial effects (vGFP) of the compound: daf-16 RNAi, FIG. 19; for effect of HSF-1 knockdown on vGFP expression with the compound: hsf-1 RNAi, FIG. 20
# Procedure: (§1) Animals were grown at 15° C. until adulthood. Gravid adults were suspended and bleached; eggs were resuspended in M9 salt solution and allowed to hatch for 24 hours at 15° C. Compounds were added to S-media at 100 μM concentration and then aliquoted to 48-well Costar plates at 400 μL per well. As a control, DMSO was added to S-media at 0.1% concentration. L1 hatched larvae were added to each well at 50-100 animals per 25 μL aliquot. Worms were thus grown in liquid media until reaching the third larval stage (L3) at 15° C. At L3 worms were shifted to 25° C. to begin biogenesis of Aβ protein. Observation began 24 hours later when the animals have reached adulthood (timepoint=0 hrs). Animals were scored as either with or without vGFP signal, regardless of intensity level.
# In order to determine a pathway the compounds are acting upon, experiments were performed with genetics already known to be involved in the handling of Aβ aggregation. The insulin/IGF-1 pathway plays a role in the handling of cellular stress. DAF-2 is the sole insulin/IGF-1 receptor in C. elegans and depletion of DAF-2 results in long-lived, stress resistant worms. The Aβ protein applies a biochemical stress to cellular activity as shown by the hsp-16.2 activity in response to its presence. […] DAF-16 encodes a FOXO transcription factor and is required for the lifepan extension in worms fed daf-2RNAi. HSF-1 is also required for the lifespan extension seen in worms fed daf-2 RNAi.
# CL660 animals were fed bacteria expressing RNAi suspended in S-basal solution.
# CL660 animals [2] = assay: vGFP signal scoring in transgenic C. elegans (CL660) expressing Aβ, liquid culture; format: in vivo; settings: compounds at 100 μM in S-media; 36 hours into adulthood; FIG. 18; control DMSO 0.1%
# Procedure: Identification of compounds that inhibit aggregation-mediated proteotoxicity was carried out using transgenic C. elegans strain, which expresses human Aβ1-42 within body wall muscles under the direction of the myo-3 promoter cause by induction at 25 C and inhibition of smg-1 activity. This induction in the absence of an effective inhibitor causes association of a heat shock protein-GFP fusion construct with the Aβ1-42 (a schematic of this model is shown in FIG. 2).
# Twenty-four hours after placing the L1-stage worms into the fridge, the plates were removed for fileting. Fifteen to twenty-five worms each were placed into wells of a microtiter plate containing compounds to be tested in an aqueous environment or a corresponding control. Only worms that were moving normally were filleted. The worms were incubated for approximately 36 hours or until L3 stage was reached. Aβ toxicity was then generated by growing the worms at 25 C for 18 hours which effects smg-1 activity. […] Typically the worms settled to the bottom of the well and were counted manually.
# as §1
SMILES,effect of DAF-16 knockdown on the beneficial effects (vGFP) of the compound (CL660 animals [1]),effect of HSF-1 knockdown on vGFP expression with the compound (CL660 animals [1]),vGFP in CL660 animals compared to control (CL660 animals [2])
CCCCN1C(=O)[C@H](COCc2ccccc2)NC(=O)C1C(=O)NCc1ccccc1 (some centres unmarked) [D7],partially suppressed the beneficial effects,no effect on vGFP expression,reduced vGFP
O=C(NCc1ccccc1)C1C(=O)N[C@@H](COCc2ccccc2)C(=O)N1Cc1cccnc1 (some centres unmarked) [E7],,,reduced vGFP
CCC(CC)N1C(=O)[C@H](COCc2ccccc2)NC(=O)C1C(=O)NCc1ccccc1 (some centres unmarked) [F7],partially suppressed the beneficial effects,no effect on vGFP expression,reduced vGFP
O=C(NCc1ccccc1)C1C(=O)N[C@@H](COCc2ccccc2)C(=O)N1C1CCCC1 (some centres unmarked) [H7],,,reduced vGFP
